Measured values published in patent US20110300566A1, “METHODS FOR SCREENING FOR HISTONE DEACETYLASE ACTIVITY AND FOR IDENTIFYING HISTONE DEACETYLASE INHIBITORS” (priority 2002, published 2011).
“Also recorded” adds a separate entry of the source.

Tests used:
HDAC2 = target: T1, HDAC2 (Homo sapiens, UniProt Q92769); assay: Histone deacetylase fluorescent activity assay (7AC hydrolysis); type: biochemical; conditions: 7AC as substrate; 350 nM GST-HDAC2; pH 8.0
T1 construct: made in house; host or cells: E. coli BL21(DE3)
Procedure: (§1) As depicted in FIG. 1, the inventive fluorescence-based HDAC assay monitors the hydrolysis of 7AC to 7-hydroxycoumarin, or of ACC to 7-hydroxycoumarin-3-carboxylic acid, at λex=332 nm and λem=447 nm. […] Utilization rations for each enzyme with the 7AC substrate were calculated. For Hos3, the utilization ratio was 1.9122×10^−4 s^−1, and 1274.8 M^−1 s^−1 when normalized by enzyme concentration. For HDLP, the utilization ratio was 2.0375×10^−4 s^−1, and 612.8 M^−1 s^−1 when normalized by enzyme concentration. For HDAC2, the utilization ratio was 1.2526×10^−5 s^−1, and 35.8 M^−1 s^−1 when normalized by enzyme concentration, as shown in Table 1.
(§2) HDAC activity assays were performed in HDAC assay buffer (20 mM Tris, pH 8.0, 500 mM NaCl, 1 mM MnCl2) to a final reaction volume of 1 ml in quartz spectrophotometer cuvettes. Fluorescence spectrophotometry was used to monitor ACC or 7AC hydrolysis (λex=332 nm, λem=447 nm). Internal fluorescence intensity calibrations were obtained using quinine sulfate as known in the art. ACC or 7AC substrate (solubilized in 100% DMSO) was added in the appropriate concentrations to the assay buffer (1% final concentration of DMSO) and the basal rate of hydrolysis was recorded. After 90 seconds, 150 nM Hos3 enzyme was added and the reaction was allowed to proceed for 600 seconds. […] Utilization ratios for Hos3 were calculated based on the adjusted initial rates. […]

Hos3 [1] = target: T2, Hos3 (Saccharomyces cerevisiae, UniProt Q02959); assay: as above; type: biochemical; conditions: 7AC as substrate; 150 nM Hos3; pH 8.0
T2 construct: made in house; host or cells: E. coli BL21(DE3)
T2 sequence (Q02959 1-697): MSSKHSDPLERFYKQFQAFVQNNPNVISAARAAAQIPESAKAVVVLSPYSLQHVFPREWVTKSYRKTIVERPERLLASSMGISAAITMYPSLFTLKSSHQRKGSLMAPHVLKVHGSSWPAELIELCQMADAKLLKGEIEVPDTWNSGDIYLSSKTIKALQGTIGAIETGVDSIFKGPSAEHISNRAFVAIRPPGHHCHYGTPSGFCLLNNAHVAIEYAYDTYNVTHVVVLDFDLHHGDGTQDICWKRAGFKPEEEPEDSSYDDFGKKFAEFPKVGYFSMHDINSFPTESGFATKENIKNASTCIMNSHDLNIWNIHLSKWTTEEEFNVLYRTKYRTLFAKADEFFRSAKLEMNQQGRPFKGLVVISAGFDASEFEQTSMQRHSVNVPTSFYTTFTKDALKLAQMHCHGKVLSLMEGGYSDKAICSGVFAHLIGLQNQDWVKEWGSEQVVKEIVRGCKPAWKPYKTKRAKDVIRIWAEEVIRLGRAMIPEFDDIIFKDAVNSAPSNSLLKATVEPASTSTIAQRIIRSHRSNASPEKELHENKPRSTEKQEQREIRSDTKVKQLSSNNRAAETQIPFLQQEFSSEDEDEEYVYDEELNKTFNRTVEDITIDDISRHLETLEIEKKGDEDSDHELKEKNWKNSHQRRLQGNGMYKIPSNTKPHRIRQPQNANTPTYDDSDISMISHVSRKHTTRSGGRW
Procedure: as §1, §2

HDLP = assay: as above; type: biochemical, Aquifex aeolicus; conditions: 7AC as substrate; 330 nM GST-HDLP; pH 8.0
Procedure: as §1, §2

[2] = Background (basal) rate of substrate hydrolysis in assay buffer; type: physicochemical; conditions: assay buffer at pH 8.0; compared with ACC
Procedure: as §1, §2

[3] = Solubility of substrate in assay buffer; type: physicochemical; conditions: HDAC assay buffer
Hos3 [4] = target: T2, Hos3; assay: HDAC inhibitor studies (competition with 7AC substrate, fluorescent assay); type: biochemical; conditions: for IC50: Hos3 (150 nM) with 7AC (75 mM) substrate; for Mode of Inhibition: Hos3, 7AC substrate, double-reciprocal plots, IC50 vs substrate concentration for TSA
Procedure: Characterization of the Mechanism of Inhibition. Inhibitor studies were conducted using the 7AC substrate and the fluorescent histone deacetylase activity assay.
Competition experiments were performed in HDAC assay buffer (20 mM Tris, pH 8.0, 500 mM NaCl, 1 mM MnCl2) to a final reaction volume of 1 ml. Trichostatin A was solubilized in 100% DMSO, yielding a final concentration of 2% DMSO in this reaction. […] The final DMSO concentration in these reactions was 1%. 7AC substrate and inhibitor were added in the appropriate concentrations to the assay buffer and the basal rate of hydrolysis was recorded. Hos3 enzyme (150 nM) was added after 90 seconds and the reaction was allowed to proceed for 600 seconds. Initial rate data was transformed into appropriate rates and dose response plots were generated. IC50 values were calculated using the program Kaleidagraph with equation 4: […]
where vi is the initial velocity in the presence of inhibitor, vo, is the initial velocity in the absence of inhibitor, and [I] is the concentration of inhibitor. Ki values were determined by Dixon plots […]. The modes of inhibition were determined by double-reciprocal or Lineweaver-Burk plots, where 1/v is plotted as a function of 1/[S], using the programs of Cleland.

Hos3 [5] = target: T2, Hos3; assay: as above; type: biochemical; conditions: Hos3 (150 nM), slope of Henderson plot
[6] = substrate: CC(=O)Oc1ccc([N+](=O)[O-])cc1; assay: UV-based histone deacetylase activity assay; type: biochemical, Saccharomyces cerevisiae; conditions: other: MBP-Hos3; UV at 410 nm
From the text: The substrates 7AC and ACC can also be effectively utilized in a UV assay. The substrate absorbs from 250-340 nm, while the product has a maximal absorbance at 375 nm. So substrate hydrolysis/product formation can be monitored by the increase in absorbance at 375 nm. […] Para-nitrophenylacetate can also be used to assay HDAC activity. Upon acetate hydrolysis, the para-nitrophenylacetate liberates the colored p-nitrophenol chromophore; this reaction can be monitored on the UV at 410 nm.
HDAC activity assays were performed in HDAC Assay Buffer to a final reaction volume of 1 ml in quartz cuvettes. UV/Vis spectrophotometer was used to monitor the rate of 7AC hydrolysis. The 7AC substrate absorbs from 250-340 nm, while the product, 7-hydroxycoumarin, has a maximal absorbance at 375 nm. Reactions were initiated with substrate and allowed to proceed for 300 seconds, while monitoring the increase in absorbance at 375 nm. Para-nitrophenylacetate was also used to assay HDAC activity. Upon acetate hydrolysis, the para-nitrophenylacetate liberated the colored p-nitrophenol chromophore; this reaction was monitored on the UV at 410 nm. Initial rates and utilization ratios were calculated as described above.

T1 sequence (Q92769 whole entry): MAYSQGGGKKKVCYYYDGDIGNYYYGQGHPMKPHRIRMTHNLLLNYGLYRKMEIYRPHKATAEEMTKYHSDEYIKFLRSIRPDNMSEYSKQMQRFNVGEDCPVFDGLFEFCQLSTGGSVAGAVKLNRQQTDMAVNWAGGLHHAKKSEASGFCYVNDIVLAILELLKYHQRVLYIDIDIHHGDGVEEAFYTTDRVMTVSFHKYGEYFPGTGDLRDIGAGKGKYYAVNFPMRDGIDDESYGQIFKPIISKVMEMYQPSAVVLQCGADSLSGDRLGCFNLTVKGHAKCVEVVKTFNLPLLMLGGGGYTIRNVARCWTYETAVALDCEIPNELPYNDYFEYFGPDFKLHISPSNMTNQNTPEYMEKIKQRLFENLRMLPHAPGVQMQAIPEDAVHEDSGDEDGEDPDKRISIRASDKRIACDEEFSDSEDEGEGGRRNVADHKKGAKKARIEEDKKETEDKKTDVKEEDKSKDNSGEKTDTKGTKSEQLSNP

For `CC(=O)Oc1ccc2ccc(=O)oc2c1` [7AC, 7-Acetoxycoumarin], the “V/K (utilization ratio)” value (HDAC2) was 1.2526e-05 s⁻¹, the “V/[Et]/K (utilization ratio normalized by enzyme concentration)” value (HDAC2) was 35.8 M⁻¹ s⁻¹ and the “V/K (utilization ratio)” value (Hos3 [1]) was 0.00019122 s⁻¹. For the same molecule, the “V/[Et]/K (utilization ratio normalized by enzyme concentration)” value (Hos3 [1]) was 1274.8 M⁻¹ s⁻¹, the “V/K (utilization ratio)” value (HDLP) was 0.00020375 s⁻¹ and the “V/[Et]/K (utilization ratio normalized by enzyme concentration)” value (HDLP) was 612.8 M⁻¹ s⁻¹. For the same molecule, the “Background rate of hydrolysis” value [2] was “lower background rate of hydrolysis” and the solubility ([3]; aqueous buffer) was at most 1 mM.

With `CCCC(=O)[O-].[Na+]` [NaB, sodium butyrate] the IC50 (Hos3 [4]) was 13.4 mM, the Ki (Hos3 [4]; Hos3 (150 nM), 7AC substrate, Dixon plot) was 12 mM and the “Mode of Inhibition” value (Hos3 [4]) was “Mixed-”. The “Mode of Inhibition” value (Hos3 [4]; listed as Sodium butyrate) was “mixed-type inhibition” and the “Mode of Inhibition” value (Hos3 [4]; listed as sodium butyrate) was “mixed-competitive inhibitor”.

For `CC(=O)Oc1ccc([N+](=O)[O-])cc1` [Para-nitrophenylacetate, 4-nitrophenylacetate], the Solubility limitation [3] was “subject to solubility limitations that prevent complete saturation of the enzyme”.

In the case of `CC(/C=C/C(=O)NO)=C\[C@@H](C)C(=O)c1ccc(N(C)C)cc1` [TSA, Trichostatin A], the IC50 (Hos3 [4]) is reported as 0.000127 mM, the “Mode of Inhibition” value (Hos3 [4]) is reported as “Tight-binding” and the “Mode of Inhibition” value (Hos3 [4]; listed as Trichostatin A) is reported as “tight-binding competitive inhibitor; also recorded: tight-binding, competitive inhibitor; also recorded: tight binding competitive inhibition”. The Ki (Hos3 [5]) was 81 nM.

B1: Hos3 (Saccharomyces cerevisiae S288C) (protein)
chain: T2 sequence (Q02959 1-697)
notes: made in house; host or cells: E. coli BL21(DE3)
In the case of B1, the Km [6] is reported as 8.3 mM.
